Test results as given in US8932597B2 (priority 2008, dated 2015).

Experiments:
[1] = tested on: anti-M2 human monoclonal antibody Z3G1; type: binding
HuM2e antibody 23K12 = type: binding, human

Row | Substance | Signal (peptides that bind to Z3G1) [1] | Signal (peptides that bind to 23K21 and 8I10) (HuM2e antibody 23K12) | Signal (peptides that show specific binding to Z3G1) [1]
1 | 568 (SLLTEVETPIRNEWGCRCQDSSD; epitope peptide) [compound 568] | 2438 | 877 | –
2 | 560 (SLLTEVETPIRNEWGCRCFDSSD; epitope peptide) [compound 560] | 2538 | 894 | –
3 | 399 (SLLTEVETPIRNEWGCRCNTSSD; epitope peptide) [compound 399] | 2483 | 795 | –
4 | 379 (SLCTEVGCSCLCEV; epitope peptide) [compound 379] | – | 1421 | 1500
5 | 293 (CSLLTEVGMSLLTEV; epitope peptide) [compound 293] | 2827 | 2039 | –
6 | 318 (SLLTEVETPIRNEWGCRCKDSSD; epitope peptide) [compound 318] | 2549 | 1802 | –
7 | 635 (SLLTEVEAPIRNEWGCRCNDSSD; epitope peptide) [compound 635] | – | 769 | 2325
8 | 415 (SLLTEVETPIRNEWGCRCNDRSD; epitope peptide) [compound 415] | 2502 | 860 | –
9 | 618 (SLLTEVETPIRNEWGCRCLDSSD; epitope peptide) [compound 618] | 2480 | 807 | –
10 | 536 (MCLCTCVGCSLLTEV; epitope peptide) [compound 536] | 2241 | 954 | –
11 | 605 (SLLTEVETPIRNMWGCRCNDSSD; epitope peptide) [compound 605] | – | 820 | 2455
12 | 433 (SLLTEVETPIRNEWGCRCNDSWD; epitope peptide) [compound 433] | 2477 | 971 | –
13 | 520 (VLLTEVETPIRNEWGCRCNDSSD; epitope peptide) [compound 520] | – | 1014 | 1758
14 | 330 (SLLTEVETPIRNEWGCRCNDYSD; epitope peptide) [compound 330] | 2445 | 1694 | –
15 | 407 (SLLTEVETPIRNEWGCRCNDHSD; epitope peptide) [compound 407] | 2537 | 1200 | –
16 | 416 (SLLTEVETPIRNEWGCRCNDTSD; epitope peptide) [compound 416] | 2394 | 794 | –
17 | 389 (SLLTEVETPYRNEWGCRCNDSSD; epitope peptide) [compound 389] | – | 1350 | 2303
18 | 312 (TLLTEVETPIRNEWGCRCNDSSD; epitope peptide) [compound 312] | – | 1855 | 2510
19 | 690 (SLLTEVHTPIRNEWGCRCNDSSD; epitope peptide) [compound 690] | – | 722 | 2057

Row | Substance | Signal (peptides that bind to Z3G1) [1] | Signal (peptides that bind to 23K21 and 8I10) (HuM2e antibody 23K12) | Signal (peptides that show specific binding to Z3G1) [1]
20 | 703 (SLLTEVETPIRNWWGCRCNDSSD; epitope peptide) [compound 703] | – | 713 | 2293
21 | 418 (SLLTEVETPIRNEWGCRCNDWSD; epitope peptide) [compound 418] | 2491 | 929 | –
22 | 517 (SLLTEVETPIRNEMGCRCNDSSD; epitope peptide) [compound 517] | – | 1020 | 2398
23 | 290 (CSLLTEVGSLLTCV; epitope peptide) [compound 290] | – | 2142 | 2503
24 | 390 (CLLTEVGSLLTEV; epitope peptide) [compound 390] | – | 1349 | 2494
25 | 388 (CSLLTEVGCLLTEV; epitope peptide) [compound 388] | – | 1351 | 2427
26 | 650 (SLLTEVETPVRNEWGCRCNDSSD; epitope peptide) [compound 650] | – | 758 | 2331
27 | 586 (SLLTEVETPIRNEWGCRCNISSD; epitope peptide) [compound 586] | 2517 | 851 | –
28 | 639 (SLLTEVETPIRNEWGCFCNDSSD; epitope peptide) [compound 639] | – | 767 | 2312
29 | 636 (SLLTEVETPIRNEIGCRCNDSSD; epitope peptide) [compound 636] | – | 768 | 2402
30 | 327 (SLMTEVETPIRNEWGCRCNDSSD; epitope peptide) [compound 327] | – | 1729 | 2149
31 | 411 (SLLTEVETPIRNEWGCRCNDMSD; epitope peptide) [compound 411] | 2405 | 744 | –
32 | 366 (SLLTEVETPIRNEWWCRCNDSSD; epitope peptide) [compound 366] | – | 1498 | 2406
33 | 596 (SLLTEVETPIRNEWFCRCNDSSD; epitope peptide) [compound 596] | – | 837 | 2493
34 | 360 (CSLLTECGCSLLTEV; epitope peptide) [compound 360] | 1427 | 1534 | –
35 | 576 (SLLTEVETPIFNEWGCRCNDSSD; epitope peptide) [compound 576] | – | 862 | 2176
36 | 296 (MSLLTEVGMCLLTEV; epitope peptide) [compound 296] | 2809 | 2023 | –
37 | 329 (SLLTEVGSCLCEC; epitope peptide) [compound 329] | – | 1708 | 2558
38 | 628 (SLLTEVETPIRNEWGCRCMDSSD; epitope peptide) [compound 628] | 2470 | 786 | –

Row | Substance | Signal (peptides that bind to Z3G1) [1] | Signal (peptides that bind to 23K21 and 8I10) (HuM2e antibody 23K12) | Signal (peptides that show specific binding to Z3G1) [1]
39 | 377 (SLKTEVETPIRNEWGCRCNDSSD; epitope peptide) [compound 377] | – | 1434 | 1453
40 | 658 (SLLTEVYTPIRNEWGCRCNDSSD; epitope peptide) [compound 658] | – | 751 | 1092
41 | 534 (SLLTEVEKPIRNEWGCRCNDSSD; epitope peptide) [compound 534] | – | 963 | 2505
42 | 684 (SLLTEVETPIRNHWGCRCNDSSD; epitope peptide) [compound 684] | – | 728 | 2377
43 | 456 (CSLLTECGMSLLCEV; epitope peptide) [compound 456] | 1640 | 1294 | –
44 | 301 (SLLCEVGCSLLTEC; epitope sequence) [compound 301] | – | 1959 | 2637
45 | 579 (SLLTEVETPIRNEWGCRWNDSSD; epitope peptide) [compound 579] | 2364 | 859 | –
46 | 356 (SLLTEVETPIRNEWGCRCNDSDD; epitope peptide) [compound 356] | 2181 | 1553 | –
47 | 678 (SLLTEVETPIRSEWGCRCNDSSD; epitope peptide) [compound 678] | – | 730 | 2322
48 | 422 (SLLTEVETPIRNEWGCRCNDSFD; epitope peptide) [compound 422] | 2492 | 947 | –
49 | 357 (SLLTEVETPIPNEWGCRCNDSSD; epitope peptide) [compound 357] | – | 1548 | 2515
50 | 380 (SLLTEVETPIRNTWGCRCNDSSD; epitope peptide) [compound 380] | – | 1409 | 2314
51 | 718 (SLLTEVECPIRNEWGCRCNDSSD; epitope peptide) [compound 718] | – | 700 | 1974
52 | 509 (SLLTEVETPIYNEWGCRCNDSSD; epitope peptide) [compound 509] | – | 1049 | 2296
53 | 535 (SLLTEVETPIRNEWGCRCNFSSD; epitope peptide) [compound 535] | 2509 | 963 | –
54 | 373 (CSLLTECGMSLLTEV; epitope peptide) [compound 373] | 1235 | 1458 | –
55 | 437 (SLLTEVETPIR; epitope peptide) [compound 437] | 2297 | 1012 | –
56 | 686 (SLLTEVETPIRNEWGCRLNDSSD; epitope peptide) [compound 686] | – | 728 | 2363
57 | 499 (CSLLTEVGMSCLCEC; epitope peptide) [compound 499] | 2101 | 1066 | –
